Among the targets are HLA A*0202 (Homo sapiens, UniProt P04439, D140Y/D185E/D98H/E176V/E277Q/G131W/G231S/I119L/I121R/I166T/I218V/L180W/L300P/L318F/N151K/N90K/P208A/P217A/Q67R/Q86G/Q94H/R138H/R169H/T345S); HLA A*0201 (Homo sapiens, UniProt P04439, D140Y/D185E/D98H/E176V/E277Q/G131W/G231S/I119V/I121R/I166T/I218V/L300P/L318F/N151K/N90K/P208A/P217A/Q86G/Q94H/R138H/R169H/T345S); HLA A*6802 (Homo sapiens, UniProt P04439, A269V/D140Y/D185E/E176V/E277Q/E87N/F33Y/G231S/I121R/I166T/I218V/L180W/L300P/L318F/N151K/P208A/P217A/Q86R/R138H/R169H/S129P/T345S/V36M); HLA A*0206 (Homo sapiens, UniProt P04439, D140Y/D185E/D98H/E176V/E277Q/F33Y/G131W/G231S/I119V/I121R/I166T/I218V/L300P/L318F/N151K/N90K/P208A/P217A/Q86G/Q94H/R138H/R169H/T345S); HLA A*0203 (Homo sapiens, UniProt P04439, A173T/D140Y/D185E/D98H/E277Q/G131W/G231S/I119V/I121R/I166T/I218V/L180W/L300P/L318F/N151K/N90K/P208A/P217A/Q86G/Q94H/R138H/R169H/T345S).

What all share (test): biochemical
Type in all cases: binding

These results are taken from article PMC3086652 (European journal of immunology, 2010).

Ends that are not written are not given here.

As for `CC(C)C[C@H](NC(=O)[C@@H](N)[C@@H](C)O)C(=O)N[C@@H](CC(N)=O)C(=O)N[C@@H](C)C(=O)N[C@@H](Cc1c[nH]c2ccccc12)C(=O)N[C@H](C(=O)N[C@@H](CCCCN)C(=O)N[C@H](C(=O)N[C@H](C(=O)O)C(C)C)C(C)C)C(C)C` [TV9, reference compound], the IC50 on HLA A*0202 was found to be 179 nM; at HLA A*0201, 701 nM; against HLA A*6802, 23.9 µM; against HLA A*0206, 1960 nM; against HLA A*0203, 108 nM.
Consider KINAWIKGV [TV9p5], for which the IC50 against HLA A*0202 is 433 nM; against HLA A*0201, 536 nM; at HLA A*6802, 36.8 µM; against HLA A*0206, 224 nM; against HLA A*0203, 10 nM.
KINAWIKVV [TV9p6]: the IC50 was 2950 nM against HLA A*0202; 5120 nM at HLA A*0201; above 10 µM against HLA A*6802; 13400 nM at HLA A*0206; 56 nM at HLA A*0203.
Turning to TINAWIKGV [TV9p29], the IC50 amounted to 706 nM against HLA A*0202; 1060 nM on HLA A*0201; 0.269 µM against HLA A*6802; 2250 nM on HLA A*0206; 15 nM at HLA A*0203.
On to TINAWIKVV [TV9p30], for which the IC50 against HLA A*0202 was 1830 nM; against HLA A*0201 it was 4230 nM; against HLA A*6802, 6.22 µM; against HLA A*0206, 12600 nM; on HLA A*0203, 112 nM.

A word on the IC50: it is the concentration at which inhibition is half-maximal. A lower IC50 goes with greater potency in that assay.
